Data published in publication PMC6272684, “Synthesis, Antiproliferative and Antifungal Activities of 1,2,3-Triazole-Substituted Carnosic Acid and Carnosol Derivatives” (Molecules, 2015).

Legend:
C. neoformans ATCC 32264 = assay: Antifungal broth microdilution (CLSI M27-A3), growth inhibition; type: cell-based, Cryptococcus neoformans; conditions: for MIC50 (minimum concentration to inhibit 50% of fungal growth), C. neoformans: C. neoformans ATCC 32264
Method in brief: (§1)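 Yeast inocula (1–5 × 10^3 CFU/mL) were tested by CLSI M27-A3 broth microdilution in RPMI-1640 at 250–3.9 μg∙mL^−1 (DMSO ≤1%) for 48 h at 30 °C in the dark. Growth was read at OD405, and % inhibition was calculated against growth and sterility controls in triplicate. MIC100 is total inhibition; MIC50 is 50% inhibition.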

[1] = test system: lung cancer (SK-MES-1) cells; assay: Antiproliferative assay (MTT reduction, 3 days); type: cell-based, human; conditions: >100 µM considered inactive, read-out: IC50 ± SD, SK-MES-1
Protocol: (§2) The antiproliferative activity towards the following human cell lines was determined: normal lung fibroblasts (MRC-5), gastric epithelial adenocarcinoma (AGS), lung cancer (SK-MES-1) and bladder carcinoma (J82) cells.
(§3) All human cell lines used in this work were purchased from the American Type Culture Collection (ATCC, Manasas, VA, USA). […] All media were supplemented with 10% heat-inactivated FBS, 100 IU∙mL^−1 penicillin and 100 µg∙mL^−1 streptomycin. Cells were grown in a humidified incubator with 5% CO2 in air at 37 °C. For the antiproliferative assay, cells were plated at a density of 5 × 10^4 cells∙mL^−1. Cells were seeded in 96-well plates (100 µL∙well^−1). One day after seeding, cells were treated with medium containing the compounds at concentrations ranging from 0 up to 100 µM during 3 days. The compounds were dissolved in DMSO (1% final concentration) and complete medium. Untreated cells (medium containing 1% DMSO) were used as 100% viability controls. […] Each concentration was tested in sextuplicate and experiments were repeated 2 times. Cell viability was determined by means of the MTT reduction assay at the end of the incubation with the products. […] The software used was OriginPro 8.1 [30].

[2] = test system: normal lung fibroblasts (MRC-5); assay: Antiproliferative assay (MTT reduction, 3 days); type: cell-based, human; conditions: MRC-5 normal fibroblasts, >100 µM considered inactive; for IC50: read-out: IC50 ± SD, MRC-5
Protocol: as §2, §3

C. albicans ATCC 10231 = assay: Antifungal broth microdilution (CLSI M27-A3), growth inhibition; type: cell-based, Candida albicans; conditions: for MIC50 (minimum concentration to inhibit 50% of fungal growth), C. albicans: C. albicans ATCC 10231; for Antifungal activity against C. albicans (in words): at the assayed concentrations (250–3.9 μg∙mL^−1)
Method in brief: as §1

[3] = test system: bladder carcinoma (J82) cells; assay: Antiproliferative assay (MTT reduction, 3 days); type: cell-based, human; conditions: J82 cells, 3 days, MTT; >100 µM considered inactive; read-out: IC50 ± SD, J82
Protocol: as §2, with “cells. […] When comparing the pairs 3–4, 5–6 and 7–8 differing in one CH2 unit in the linker, the activity decreased with linker length.” for “cells.”
(§4) All human cell lines used in this work were purchased from the American Type Culture Collection (ATCC, Manasas, VA, USA). Normal lung MRC-5 fibroblasts (CCL-171), SK-MES-1 lung cancer cells (HTB-58) and J82 bladder carcinoma cells (HTB-1) were grown as monolayers in minimum essential Eagle medium (MEM) with Earles’s salts, 2 mM L-glutamine and 1.5 g∙L^−1 sodium bicarbonate. Gastric adenocarcinoma AGS cells (CRL-1739) were grown as monolayers in Ham F-12 medium containing 1 mM L-glutamine and 1.5 g∙L^−1 sodium bicarbonate. All media were supplemented with 10% heat-inactivated FBS, 100 IU∙mL^−1 penicillin and 100 µg∙mL^−1 streptomycin. Cells were grown in a humidified incubator with 5% CO2 in air at 37 °C. For the antiproliferative assay, cells were plated at a density of 5 × 10^4 cells∙mL^−1. Cells were seeded in 96-well plates (100 µL∙well^−1). One day after seeding, cells were treated with medium containing the compounds at concentrations ranging from 0 up to 100 µM during 3 days. The compounds were dissolved in DMSO (1% final concentration) and complete medium. Untreated cells (medium containing 1% DMSO) were used as 100% viability controls. […] Each concentration was tested in sextuplicate and experiments were repeated 2 times. Cell viability was determined by means of the MTT reduction assay at the end of the incubation with the products. The results were transformed to percentage of controls and the IC50 value was obtained adjusting the dose-response curve to a sigmoidal model. The software used was OriginPro 8.1 [30].

[4] = test system: gastric epithelial adenocarcinoma (AGS) cells; assay: Antiproliferative assay (MTT reduction, 3 days); type: cell-based, human; conditions: >100 µM considered inactive; for IC50: read-out: IC50 ± SD, AGS
Protocol: as §2, with “cells. […] When comparing the pairs 3–4, 5–6 and 7–8 differing in one CH2 unit in the linker, the activity decreased with linker length.” for “cells.”
as §4

Row | Structure (SMILES) | Inhibition percentage against C. neoformans ATCC 32264 (C. neoformans ATCC 32264; 3.9 μg∙mL^−1, 48 h) [%] | Inhibition percentage against C. neoformans ATCC 32264 (C. neoformans ATCC 32264; 7.8 μg∙mL^−1, 48 h) [%] | Inhibition percentage against C. neoformans ATCC 32264 (C. neoformans ATCC 32264; 15.6 μg∙mL^−1, 48 h) [%] | Inhibition percentage against C. neoformans ATCC 32264 (C. neoformans ATCC 32264; 31.2 μg∙mL^−1, 48 h) [%] | Inhibition percentage against C. neoformans ATCC 32264 (C. neoformans ATCC 32264; 62.5 μg∙mL^−1, 48 h) [%] | Inhibition percentage against C. neoformans ATCC 32264 (C. neoformans ATCC 32264; 125 μg∙mL^−1, 48 h) [%] | Inhibition percentage against C. neoformans ATCC 32264 (C. neoformans ATCC 32264; 250 μg∙mL^−1, 48 h) [%] | MIC50 (minimum concentration to inhibit 50% of fungal growth), C. neoformans (C. neoformans ATCC 32264) [µg/mL] | IC50 [1] [µM] | IC50 [2] [µM] | Inhibition percentage against C. albicans ATCC 10231 (C. albicans ATCC 10231; 3.9 μg∙mL^−1, 48 h) [%] | Inhibition percentage against C. albicans ATCC 10231 (C. albicans ATCC 10231; 7.8 μg∙mL^−1, 48 h) [%] | Inhibition percentage against C. albicans ATCC 10231 (C. albicans ATCC 10231; 15.6 μg∙mL^−1, 48 h) [%] | Inhibition percentage against C. albicans ATCC 10231 (C. albicans ATCC 10231; 62.5 μg∙mL^−1, 48 h) [%] | Inhibition percentage against C. albicans ATCC 10231 (C. albicans ATCC 10231; 125 μg∙mL^−1, 48 h) [%] | Inhibition percentage against C. albicans ATCC 10231 (C. albicans ATCC 10231; 250 μg∙mL^−1, 48 h) [%] | Inhibition percentage against C. albicans ATCC 10231 (C. albicans ATCC 10231; 31. μg∙mL^−1, 48 h) [%] | MIC50 (minimum concentration to inhibit 50% of fungal growth), C. albicans (C. albicans ATCC 10231) [µg/mL] | IC50 [3] [µM] | IC50 [4] [µM] | other results
1 | CC(C)c1cc2c3c(c1OC(=O)CCc1cn(Cc4ccccc4)nn1)OC(=O)[C@@]31CCCC(C)(C)[C@@H]1CC2 [Compound 3, 12-O-(3-(1-benzyl-1H-1,2,3-triazol-4-yl)-propanoyloxy)-11,20-epoxyabieta-8,11,13-trien-20-one] | 4.9 ± 0.5 | 9.0 ± 0.3 | 9.7 ± 0.1 | 14.3 ± 2.0 | 16.7 ± 0.5 | 18.4 ± 0.2 | 26.7 ± 1.5 | >250 | 73 ± 3.9 | 43.4 ± 3 | 5.7 ± 0.8 | 8.1 ± 0.8 | 9.1 ± 1.5 | 14.3 ± 2.0 | 20.2 ± 2.2 | 20.3 ± 3.9 | 11.1 ± 0.4 | >250 | 74.1 ± 3.9 | 48.9 ± 3.9 | IC50 ± SD, MRC-5 [2]: active; Antifungal activity against C. albicans (in words) (C. albicans ATCC 10231): devoid of activity; IC50 ± SD, AGS [4]: active
2 | CC(C)c1cc2c3c(c1OC(=O)CCCc1cn(Cc4ccc([N+](=O)[O-])cc4)nn1)OC(=O)C31CCCC(C)(C)C1CC2 (centres unmarked) [Compound 8, 12-O-(4-(1-(4-nitrobenzyl)-1H-1,2,3-triazol-4-yl)-butanoyloxy)-11,20-epoxyabieta-8,11,13-trien-20-one] | 0.0 | 0.0 | 0.3 ± 0.1 | 0.8 ± 0.1 | 8.2 ± 2.8 | 9.5 ± 2.9 | 10.4 ± 2.8 | >250 | > 100 | > 100 | 0.0 | 0.0 | 0.0 | 5.6 ± 1.7 | 14.0 ± 1.9 | 27.5 ± 2.0 | 2.5 ± 1.3 | >250 | > 100 | > 100 | 
3 | CC(C)c1cc2c3c(c1OC(=O)CCc1cn(CSc4ccccc4)nn1)OC(=O)[C@@]31CCCC(C)(C)[C@@H]1CC2 [Compound 1, 12-O-(3-(((1-phenylthio)methyl)-1H-1,2,3-triazol-4-yl)-propanoyloxy)-11,20-epoxyabieta-8,11,13-trien-20-one] | 0.0 | 0.0 | 0.0 | 3.7 ± 0.1 | 3.9 ± 0.4 | 8.9 ± 0.7 | 11.0 ± 0.5 | >250 | 81.7 ± 4.3 | 45.1 ± 2.1 | 0.0 | 0.0 | 0.4 ± 0.2 | 3.5 ± 0.3 | 8.2 ± 0.1 | 17.1 ± 0.1 | 1.9 ± 0.3 | >250 | > 100 | 39.2 ± 2.3 | Antifungal activity against C. albicans (in words) (C. albicans ATCC 10231): devoid of activity
4 | CC(C)c1cc2c3c(c1OC(=O)CCc1cn(Cc4ccc([N+](=O)[O-])cc4)nn1)OC(=O)C31CCCC(C)(C)C1CC2 (centres unmarked) [Compound 7, 12-O-(3-(1-(4-nitrobenzyl)-1H-1,2,3-triazol-4-yl)-propanoyloxy)-11,20-epoxyabieta-8,11,13-trien-20-one] | 0.0 | 0.0 | 0.0 | 0.0 | 0.0 | 20.0 ± 1.1 | 28.2 ± 2.7 | >250 | > 100 | 60.6 ± 3.6 | 0.0 | 0.9 ± 0.2 | 2.1 ± 0.1 | 2.5 ± 0.5 | 10.5 ± 3.0 | 15.5 ± 1.1 | 2.2 ± 0.7 | >250 | > 100 | 64.3 ± 4.5 | 
5 | CC(C)c1cc2c3c(c1OC(=O)CCCc1cn(Cc4ccc(Br)cc4)nn1)OC(=O)[C@@]31CCCC(C)(C)[C@@H]1CC2 [Compound 6, 12-O-(4-(1-(4-bromobenzyl)-1H-1,2,3-triazol-4-yl)-butanoyloxy)-11,20-epoxyabieta-8,11,13-trien-20-one] | 0.0 | 0.0 | 0.0 | 5.4 ± 0.7 | 12.7 ± 0.8 | 22.4 ± 1.5 | 41.4 ± 2.7 | >250 | > 100 | > 100 | 0.0 | 1.4 ± 0.4 | 1.5 ± 0.1 | 13.2 ± 1.4 | 19.9 ± 0.5 | 45.4 ± 3.4 | 4.2 ± 0.9 | >250 | > 100 | > 100 | 
